Reference: ChEMBL document CHEMBL4613288, “Combined Peptide and Small-Molecule Approach toward Nonacidic THIQ Inhibitors of the KEAP1/NRF2 Interaction” (ACS Med Chem Lett, 2020)

Experiment: Apparent permeability across apical to basolateral side in MDCK-MDR1 cells measured over 60 mins
Format: ADME, cell-based, Canis lupus familiaris
Settings: dog

| Papp A→B at 1 h [×10⁻⁶ cm/s] | SMILES |
| --- | --- |
| 0.9 | O=C(O)[C@H]1CCCC[C@H]1C(=O)N1CCc2c(OCCO)cccc2[C@H]1CN1C(=O)c2ccccc2C1=O |
| 4.6 | O=C(OCc1ccccc1)[C@H]1CCCC[C@H]1C(=O)N1CCc2c(OS(=O)(=O)C(F)(F)F)cccc2C1CN1C(=O)c2ccccc2C1=O (some centres not stated) |
